Measurements as given in US6399654B1, “Biflavanoids and derivatives thereof as antiviral agents” (priority 1995, dated 2002).
Where two headings read alike, the source gives them in different places.

Key:
[1] = test system: African green monkey kidney (BSC-1) cells; details: Measles Virus test
[2] = test system: Influenza A (H1N1) Texas/36/91; assay: microbe, parasite or virus in culture; format: cell-based, influenza A virus; details: Influenza A (H1N1) Texas/36/91
HIV-1 RT = biological target: T1, HIV-1 RT (Human immunodeficiency virus type 1 group M subtype B, UniProt P03366); assay: Anti-HIV-1 RT assay (recombinant enzyme); format: biochemical; details: for Anti-HIV-1 RT IC50: values in parentheses or in words
T1 construct: made in house; host or cells: Escherichia coli

VZV = VZV plaque reduction assay in HFF cells; details: for VZV Plaque Reduction EC50 / VZV SI (CC50/EC50): HFF Cells
HSV-2 = HSV-2 CPE inhibition in HFF cells; details: HFF Cells
[3] = test system: African green monkey kidney (MA-104) cells; details: for CPI Inhibition IC50 (cytotoxic): Parainfluenza Type 3 Virus test; for CPE Inhibition IC50 (cytotoxic): Respiratory Syncytial Virus test
[4] = test system: Influenza A (H1N1) Texas/36/91; assay: microbe, parasite or virus in culture; format: cell-based, influenza A virus; details: Influenza A (H1N1) Texas/36/91; remark: listed apart in the source
Measles Virus [5] = assay: microbe, parasite or virus in culture; format: cell-based; details: Measles Virus
Adenovirus Type 5 [6] = assay: Adenovirus type 5 neutral red dye uptake in A549 cells; format: cell-based; details: Adenovirus Type 5
HCMV = HCMV CPE inhibition in HFF cells; details: HFF Cells
Adenovirus Type 5 [7] = assay: microbe, parasite or virus in culture; format: cell-based
Hepatitis B Virus (HBV) = assay: Inhibition of HBV replication in 2.2.15 cells, extracellular (virion) HBV DNA; details: for SI (CC50/EC90), HBV Virion: selective index;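 on all read-outs here: extracellular virion HBV DNA in culture medium measured by slot blot hybridization with a 32P-labeled HBV probe, quantified against HBV DNA standards, after 9 days of daily dosing, compared with day 0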
Influenza B Panama/45/90 [8] = assay: microbe, parasite or virus in culture; format: cell-based
Influenza B Panama/45/90 [9] = assay: microbe, parasite or virus in culture; format: cell-based; details: Influenza B Panama/45/90
[10] = test system: Parainfluenza Type 3 Virus; assay: organism not typed; format: cell-based; details: Parainfluenza Type 3 Virus
[11] = test system: Respiratory Syncytial Virus; assay: microbe, parasite or virus in culture; format: cell-based; details: Respiratory Syncytial Virus
[12] = test system: Influenza A (H3N2) Beijing/32/92; assay: microbe, parasite or virus in culture; format: cell-based, influenza A virus; details: Influenza A (H3N2) Beijing/32/92
[13] = test system: African green monkey kidney (BSC-1) cells
Measles Virus [14] = assay: Measles virus neutral red dye uptake in BSC-1 cells; format: cell-based
HSV-1 = HSV-1 CPE inhibition in HFF cells; details: HFF Cells
[15] = test system: Madin Darby canine kidney (MDCK) cells
[16] = test system: Human lung carcinoma (A549) cells
[17] = test system: Parainfluenza Type 3 Virus; assay: organism not typed; format: cell-based
[18] = test system: Respiratory Syncytial Virus; assay: microbe, parasite or virus in culture; format: cell-based; details: Respiratory Syncytial Virus; remark: listed apart in the source
[19] = test system: Human lung carcinoma (A549) cells; details: Adenovirus Type 5 test
[20] = test system: Influenza A (H3N2) Beijing/32/92; assay: microbe, parasite or virus in culture; format: cell-based, influenza A virus; details: Influenza A (H3N2) Beijing/32/92; remark: listed apart in the source
[21] = test system: Madin Darby canine kidney (MDCK) cells; details: for CPE Inhibition IC50 (50% cell inhibitory (cytotoxic) concentration): Influenza A (H1N1) test

In the case of `CC(=O)Oc1ccc([C@@H]2CC(=O)c3c(cc(OC(C)=O)c(-c4c(OC(C)=O)cc5c(c4OC(C)=O)C(=O)C[C@@H](c4ccc(OC(C)=O)cc4)O5)c3OC(C)=O)O2)cc1` [Succedaneaflavanone hexaacetate (12), succedaneaflavanone hexaacetate], the “CPI Inhibition IC50 (cytotoxic)” value [1] is reported as <4 µg/mL, the “Neutral Red EC50” value [2] is reported as 7.4 µg/mL and the “HCMV CPE Inhibition CC50” value (HFF Cells) is reported as 14.4 µg/mL. For the same molecule, the “HSV-1 CPE Inhibition CC50” value (HFF Cells) was 17.7 µg/mL, the “HSV-2 CPE Inhibition CC50” value (HFF Cells) was 17.7 µg/mL and the “VZV Plaque Reduction CC50” value (HFF Cells) was 68.0 µg/mL. For the same molecule, the “Anti-HIV-1 RT % Inhibition at 200 μg/ml” value (HIV-1 RT) was 0.00%, the “Anti-HIV-1 RT IC50” value (HIV-1 RT) was “Inactive” and the “activity against VZV (in words)” value (VZV) was “moderately active”. The “VZV Plaque Reduction EC50” value (VZV) was 7.1 µg/mL, the “VZV SI (CC50/EC50)” value (VZV) was 9.6 and the “HSV-2 CPE Inhibition EC50” value (HSV-2) was >4.0 µg/mL. The “HSV-2 SI (CC50/EC50)” value (HSV-2) was <4.4, the “CPI Inhibition IC50 (cytotoxic)” value [3] was “˜14 ug/ml” and the “CPE Inhibition IC50 (cytotoxic)” value [3] was 4 µg/mL. The “CPE Inhibition EC50” value [4] was 5.6 µg/mL, the “CPI Inhibition EC50” value (Measles Virus [5]) was “˜3.2 ug/ml” and the “Neutral Red EC50” value (Adenovirus Type 5 [6]) was 6 µg/mL. For the same molecule, the “HCMV CPE Inhibition EC50” value (HCMV) was >4.0 µg/mL, the “HCMV SI (CC50/EC50)” value (HCMV) was <3.5 and the “CPE Inhibition EC50” value (Adenovirus Type 5 [7]) was 20 µg/mL. The “anti-HBV activity (in words)” value (Hepatitis B Virus (HBV); 2.2.15 cells) was “moderate anti-HBV activity”, the EC50 (Hepatitis B Virus (HBV); read-out: EC50 (50% effective dose), HBV Virion, 2.2.15 cells, extracellular (virion) HBV DNA, 9 days treatment) was 3.5 µM and the EC90 (Hepatitis B Virus (HBV); read-out: EC90 (90% effective dose), HBV Virion, 2.2.15 cells, extracellular (virion) HBV DNA, 9 days treatment) was 128 µM. For the same molecule, the “SI (CC50/EC90), HBV Virion” value (Hepatitis B Virus (HBV)) was 1.9, the “Neutral Red EC50” value (Influenza B Panama/45/90 [8]) was 5.9 µg/mL and the “CPE Inhibition EC50” value (Influenza B Panama/45/90 [9]) was 5.4 µg/mL. The “CPI Inhibition EC50” value [10] was >10 µg/mL, the “Neutral Red EC50” value [11] was 6 µg/mL and the “Neutral Red EC50” value [12] was 5.6 µg/mL. The “Neutral Red IC50 (cytotoxic)” value [13] was <200 µg/mL, the “Neutral Red EC50” value (Measles Virus [14]) was <2 µg/mL and the “HSV-1 CPE Inhibition EC50” value (HSV-1) was >4 µg/mL. For the same molecule, the “HSV-1 SI (CC50/EC50)” value (HSV-1) was <4.4, the “Neutral Red IC50 (cytotoxic)” value ([15]; Influenza A (H1N1) test) was 7.4 µg/mL and the “Neutral Red IC50 (cytotoxic)” value ([15]; Influenza A (H3N2) test) was 5.6 µg/mL. For the same molecule, the “Neutral Red IC50 (cytotoxic)” value ([15]; Influenza B test) was 5.9 µg/mL, the “Neutral Red IC50 (cytotoxic)” value [16] was 6 µg/mL and the “Neutral Red EC50” value [17] was >32 µg/mL. The “CPE Inhibition EC50” value [18] was >3 µg/mL, the “CPE Inhibition IC50 (cytotoxic)” value [19] was 19 µg/mL and the “CPE Inhibition EC50” value [20] was 8.8 µg/mL. For the same molecule, the “CPE Inhibition IC50 (50% cell inhibitory (cytotoxic) concentration)” value [21] was 8.2 µg/mL, the “CPE Inhibition IC50 (cytotoxic)” value ([21]; Influenza A (H3N2) test) was 12 µg/mL and the “CPE Inhibition IC50 (cytotoxic)” value ([21]; Influenza B test) was 12 µg/mL.

`CC(=O)Oc1ccc([C@@H]2CC(=O)c3c(cc(OC(C)=O)c(-c4c(OC(C)=O)cc(OC(C)=O)c5c4O[C@H](c4ccc(OC(C)=O)cc4)CC5=O)c3OC(C)=O)O2)cc1` [Rhusflavanone hexaacetate (10), rhusflavanone hexaacetate] was tested, and the “CPI Inhibition IC50 (cytotoxic)” value [1] was <4 µg/mL, the “Neutral Red EC50” value [2] was 5.6 µg/mL and the “HCMV CPE Inhibition CC50” value (HFF Cells) was 13.4 µg/mL. For the same molecule, the “HSV-1 CPE Inhibition CC50” value (HFF Cells) was 18.5 µg/mL, the “HSV-2 CPE Inhibition CC50” value (HFF Cells) was 18.5 µg/mL and the “VZV Plaque Reduction CC50” value (HFF Cells) was 46.7 µg/mL. The “Anti-HIV-1 RT % Inhibition at 200 μg/ml” value (HIV-1 RT) was 0.00%, the “Anti-HIV-1 RT IC50” value (HIV-1 RT) was “Inactive” and the “VZV Plaque Reduction EC50” value (VZV) was 11.3 µg/mL. The “VZV SI (CC50/EC50)” value (VZV) was 4.1, the “HSV-2 CPE Inhibition EC50” value (HSV-2) was >4.0 µg/mL and the “HSV-2 SI (CC50/EC50)” value (HSV-2) was <4.6. For the same molecule, the “CPI Inhibition IC50 (cytotoxic)” value [3] was 22 µg/mL, the “CPE Inhibition IC50 (cytotoxic)” value [3] was 13 µg/mL and the “CPE Inhibition EC50” value [4] was >10 µg/mL. For the same molecule, the “CPI Inhibition EC50” value (Measles Virus [5]) was “˜3 ug/ml”, the “Neutral Red EC50” value (Adenovirus Type 5 [6]) was 19 µg/mL and the “HCMV CPE Inhibition EC50” value (HCMV) was >4.0 µg/mL. For the same molecule, the “HCMV SI (CC50/EC50)” value (HCMV) was <3.3, the “CPE Inhibition EC50” value (Adenovirus Type 5 [7]) was >10 µg/mL and the “anti-HBV activity (in words)” value (Hepatitis B Virus (HBV); 2.2.15 cells) was “moderate anti-HBV activity”. The “SI (CC50/EC90), HBV Virion” value (Hepatitis B Virus (HBV)) was 2.8, the “CPE Inhibition EC50” value (Influenza B Panama/45/90 [9]) was >10 µg/mL and the “CPI Inhibition EC50” value [10] was >10 µg/mL. The “Neutral Red EC50” value [11] was 19 µg/mL, the “Neutral Red EC50” value [12] was 5.4 µg/mL and the “Neutral Red IC50 (cytotoxic)” value [13] was <11 µg/mL. For the same molecule, the “Neutral Red EC50” value (Measles Virus [14]) was <10 µg/mL, the “HSV-1 CPE Inhibition EC50” value (HSV-1) was >4.0 µg/mL and the “HSV-1 SI (CC50/EC50)” value (HSV-1) was <4.6. For the same molecule, the “Neutral Red IC50 (cytotoxic)” value ([15]; Influenza A (H1N1) test) was 5.7 µg/mL, the “Neutral Red IC50 (cytotoxic)” value ([15]; Influenza A (H3N2) test) was 5.3 µg/mL and the “Neutral Red IC50 (cytotoxic)” value [16] was 26 µg/mL. The “Neutral Red EC50” value [17] was 32 µg/mL, the “CPE Inhibition EC50” value [18] was >10 µg/mL and the “CPE Inhibition IC50 (cytotoxic)” value [19] was 22 µg/mL. The “CPE Inhibition EC50” value [20] was >10 µg/mL, the “CPE Inhibition IC50 (50% cell inhibitory (cytotoxic) concentration)” value [21] was 7.2 µg/mL and the “CPE Inhibition IC50 (cytotoxic)” value ([21]; Influenza A (H3N2) test) was 5.6 µg/mL. The “CPE Inhibition IC50 (cytotoxic)” value ([21]; Influenza B test) was 4.2 µg/mL.
